Columns and labels:
Balb/c mice [1] = assay: Production amount of antibody by ELISA after dermal administration of antigenic substance with immunoadjuvant (Test Example 1); type: in vivo
Balb/c mice [2] = assay: Measurement of IgG1/IgG2 ratio in blood samples as an index of Th2/Th1 balance (Test Example 2); type: in vivo; conditions: for IgG1/IgG2 ratio (given as average of the absorbance): mouse, in vivo
Protocol: The blood sample collected on the 25th day from the start of the test was provided, and the IgG1/IgG2 ratio was measured as an index of Th2/Th1 balance.
Further, a blood sample obtained by inoculating only the antigenic substance by intraperitoneal administration instead of the dermal administration at the same time as in the administration schedule in Test Example 1 was used as a control blood sample for comparison.
The IgG1/IgG2 ratio was measured with a Mouse Monoclonal Antibody Isotyping Reagents kit (SIGMA).
Specifically, a mouse serum was diluted with PBS by a factor of 1000 to give a solution. The solution (100 μL) was added to wells in a plate and was incubated at 37° C. for one hr. Next, each well was washed three times with PBS, and 100 μL of isotyping specific reagents (reagents containing IgA, IgG1, IgG2a, and IgG2b), which had been diluted by a factor of 1000, were added to the wells followed by incubation at room temperature for 30 min. Each well was washed three times with PBST. A peroxidase labelled mouse IgG (manufactured by SIGMA) (100 μL), which had been diluted with PBST by a factor of 5000, was added to the wells, and the wells were allowed to stand at room temperature for one hr. The wells were then washed three times with PBST. Thereafter, ABTS was added as a chromophoric substrate, and incubation was carried out for 5 to 10 min. For each well, the absorbance was measured with Multiscan Ascent (manufactured by Thermo Labsystems, wave length 405 nm).

Compound	average±standard error of the absorbance (amount of antibody in mouse serum by ELISA) (Balb/c mice [1]; mouse, in vivo)	IgG1/IgG2 ratio (given as average of the absorbance) (Balb/c mice [2])	average±standard error of the absorbance (amount of antibody in mouse serum by ELISA) (Balb/c mice [1]; serum sample on the 25th day from start of test, dermal administration by tape preparation, serum diluted 1000-fold, wavelength 405 nm, n=4)	Th2/Th1 balance (type of immunity induced) (Balb/c mice [2]; from IgG1/IgG2 ratio, compared with antigenic substance only intraperitoneally or with cholera toxin)
cholera toxin [reference compound]	0.551±0.202	1.46		
Nc1ncnc2c1ncn2[C@@H]1O[C@H](COP(=O)(O)OP(=O)(O)OP(=O)(O)O)[C@@H](O)[C@H]1O [ATP, adenosine triphosphate]		2.28	0.670±0.033	Th2 cells are predominant
